≈ marks a conversion by molar mass, not a printed value. Where two headings read alike, the source gives them in different places.
What was measured:
[1] = Solubility determination of nilotinib (saturated solution, 24 h stirring, filtrate analysed by gravimetry); format: physicochemical; conditions: for solubility at 24 h: organic solvent or mixture, thermodynamic from solid
Experimental: A saturated solution of nilotinib was prepared in the respective solvent at the respective temperature with excess crystalline nilotinib and allowed to stir for 24 h, a suspension of nilotinib in the solvent, which was saturated with nilotinib, was obtained. The suspension was filtered through a 1 micrometer glass filter. Crystalline solubility was determined by analysis of the filtrate, which is the saturated solution, by gravimetry (weighing).

[2] = Metastability of the supersaturated nilotinib solution from the Solvent-Shift route (visual check for precipitation)
[3] = Glacial Acetic Acid, wt % of saturated solution
[4] = Methanol:Acetic Acid 9:1 (w:w), wt % of saturated solution
[5] = Methanol, wt % based on weight of the saturated solution

`Cc1cn(-c2cc(NC(=O)c3ccc(C)c(Nc4nccc(-c5cccnc5)n4)c3)cc(C(F)(F)F)c2)cn1` [Nilotinib] gave a solubility at 24 h ([1]; 25 °C, Glacial Acetic Acid, mg per ml saturated solution, read-out: Solubility at 25° C.) of 135000 µg/mL (≈ 255 mM), a solubility at 24 h ([1]; 25 °C, Methanol:Acetic Acid 9:1 (w:w), mg per ml saturated solution, read-out: Solubility at 25° C.) of 6000 µg/mL (≈ 11.3 mM) and a solubility at 24 h ([1]; 25 °C, Methanol, mg of nilotinib per ml saturated solution, read-out: Solubility at 25° C.) of 2800 µg/mL (≈ 5.29 mM). The solubility at 24 h ([1]; 40 °C, Glacial Acetic Acid, mg per ml saturated solution, read-out: Solubility at 40° C.) was 233000 µg/mL (≈ 440 mM), the “Solubility at 25° C.” value [1, 3] was 12.7 wt % and the “Solubility at 40° C.” value [1, 3] was 21.1 wt %. The “Solubility at 40° C.” value ([1]; Methanol:Acetic Acid 9:1 (w:w), mg per ml saturated solution) was 8 mg/mL (≈ 15.1 mM), the “Solubility at 25° C.” value [1, 4] was 0.76 wt % and the “Solubility at 40° C.” value [1, 4] was 1.0 wt %. For the same molecule, the “Solubility at 40° C.” value ([1]; Methanol, mg of nilotinib per ml saturated solution) was 5.0 mg/mL (≈ 9.44 mM), the “Solubility at 25° C.” value [1, 5] was 0.36 wt % and the “Solubility at 40° C.” value [1, 5] was 0.66 wt %. The “Time at which visible solids were observed” value ([2]; Example 1: 2.15 wt % nilotinib in 91.2:8.8 (w:w) methanol:acetic acid, 40° C., no polymer) was 7.5 h, the “Appearance of the control mixture (nilotinib weighed directly into the solvent mixture)” value ([2]; Example 1 control: 2.06 wt % nilotinib in 89.5:10.5 (w:w) methanol:acetic acid, 40° C.) was “visible slurry” and the “Time at which visible solids were observed” value ([2]; Example 3: 2.19 wt % nilotinib in 85.0:9.0:6.0 (w:w:w) methanol:acetic acid:PVP-VA64, 40° C.) was 4 h.

From patent publication US20230293439A1, “SPRAY DRYING OF SUPERSATURATED SOLUTIONS OF API WITH ACETIC ACID” (BEND RESEARCH, INC., priority 2020, published 2023)
